Assay results from paper PMC11013945, “Antiprotozoal Activity of Plants Used in the Management of Sleeping Sickness in Angola and Bioactivity-Guided Fractionation of Brasenia schreberi J.F.Gmel and Nymphaea lotus L. Active against T. b. rhodesiense” (Molecules, 2024).
Values after ≈ are worked out from the molar mass of the structure shown.

What was measured:
T. cruzi = experiment: In vitro growth inhibition of T. cruzi intracellular amastigotes grown in L6 rat myoblasts; format: cell-based, Trypanosoma cruzi; details: Table 4, pure compounds; for IC50: Trypanosoma cruzi, Myoblast, mean of two independent experiments
Method: (§1) In vitro growth inhibitory activity of the extracts and pure compounds against T. cruzi (intracellular amastigote forms grown in L6 rat myoblasts), L. donovani (axenic amastigote forms in acidic medium or intracellular amastigotes in mouse primary macrophages), and P. falciparum (erythrocytic stages in culture) was determined as described previously. Testing against intracellular L. donovani was performed as follows: mouse peritoneal macrophages (4 × 104 in 100 µL RPMI 1640 medium with 10% heat-inactivated FBS) in 96-well plates were infected with amastigotes (2 × 105 in 100 µL medium). After 24 h, the medium was exchanged twice to remove free amastigotes. Test compounds were added, and the plates incubated for 96 h at 37 °C under 5% CO2. Then, the medium was removed, the cells were fixed with 50 µL 4% formaldehyde, and stained with 5 µM DRAQ5. Nine images were taken per well on a ImageXpress XLS (MD) microscope (Molecular Devices, San Jose, CA, USA) using a 20× air objective (635 nm excitation: 690/50 emission) and analyzed with a script developed on Meta Xpress (MD). Cytotoxicity against L6 cells was assessed by using a similar protocol as outlined for IC50 determination with T. b. rhodesiense, except that rat skeletal myoblasts (L6 cells) were used. The medium was RPMI 1640 medium supplemented with 1% L-glutamine (200 mM) and 10% fetal bovine serum. Reference compounds were melarsoprol for T. b. rhodesiense, benznidazole for T. cruzi, miltefosine for L. donovani, chloroquine and artesunate for P. falciparum, and podophyllotoxin for L6 cells.

L. donovani = experiment: In vitro growth inhibition of L. donovani axenic amastigotes; format: cell-based, Leishmania donovani; details: Table 4, pure compounds; for IC50: Leishmania donovani, axenic amastigote
Method: as §1

P. falciparum [1] = experiment: In vitro growth inhibition of P. falciparum erythrocytic stages; format: cell-based, Plasmodium falciparum; details: Table 4, pure compounds; for IC50: Plasmodium falciparum
Method: as §1

L6 cells = experiment: Cytotoxicity against L6 cells; format: cell-based; details: Rattus norvegicus, Table 4, pure compounds
Method: as §1

[2] = test system: T. b. rhodesiense STIB 900; experiment: IC50 determination against T. b. rhodesiense, serial dilutions, Alamar blue; format: cell-based, Trypanosoma brucei rhodesiense; details: Table 4, pure compounds; for IC50: Trypanosoma brucei
epimastigote T. cruzi = test system: epimastigote T. cruzi; parameters: method as in PMID 27347554; details: read-out: IC50 against epimastigote T. cruzi; cited from earlier work
P. falciparum [3] = test system: P. falciparum; parameters: method as in PMID 29333044; details: isolated from Alectryon serratus leaves; cited from earlier work
[4] = test system: sn-glycerol-3-phosphate oxidase system of T. b. brucei; details: in vitro; cited from earlier work
leishmania = test system: leishmania; parameters: method as in PMID 16643059; details: cited from earlier work
[5] = test system: Trypanosoma brucei rhodesiense STIB900; experiment: Growth inhibition (GI) of T. b. rhodesiense bloodstream forms at a single concentration, Alamar blue; format: cell-based; details: read-out: Growth inhibition (%)
Method: A total of 122 extracts were prepared from different parts of the nine plant species. Each plant part was extracted consecutively with hexane, dichloromethane, ethanol, methanol, and water. The extracts were tested for their in vitro growth inhibition (GI) activity against bloodstream forms of Trypanosoma brucei rhodesiense STIB900, our reference strain for drug testing against African trypanosomes at a concentration of 20 µg/mL. […] A detailed description of the plant species, the parts extracted, solvent, extraction yield, and percentage of growth inhibition (GI%) is given in Supplementary Table S1.
Growth inhibition (GI) activity against T. b. rhodesiense STIB 900 was determined as follows: in a 96-well microtiter plate, 50 µL of HMI-9 medium supplemented with 15% heat-inactivated horse serum were added to each well. A total of 10 µL of the plant extract stock solution was added to each well. Then, 50 µL of bloodstream-form trypanosomes were added, adjusted with a cell counter (CASY, Schärfe System, Germany) to 4 × 10^4 cells/mL. […] Then, the plate was read with a Spectramax Gemini XS microplate fluorometer (Molecular Devices Corporation, Sunnyvale, CA, USA) using an excitation wavelength of 530 nm and an emission wavelength of 590 nm. Fluorescence was expressed as percentage of the untreated control. […]

[6] = test system: intracellular L. donovani; experiment: Intramacrophage assay, intracellular L. donovani amastigotes in mouse peritoneal macrophages; format: cell-based; details: Leishmania donovani, Macrophage
Method: as §1, with “Reference compounds were melarsoprol for T. b. rhodesiense, benznidazole for T. cruzi, miltefosine for L. donovani, chloroquine and artesunate for P. falciparum, and podophyllotoxin for L6 cells.” left out

[7] = mean of two independent experiments

| Compound | T. cruzi SI (T. cruzi) | IC50 (T. cruzi) [µg/mL] | IC50 (L. donovani) [µg/mL] | L. donovani SI (L. donovani) | IC50 (P. falciparum [1]) [µg/mL] | IC50 (L6 cells) [µg/mL] | T. b. rhodesiense SI [2] | IC50 [2, 7] [µg/mL] | IC50 (epimastigote T. cruzi) [µM] | IC50 against P. falciparum (P. falciparum [3]) [ng/mL] | inhibition of sn-glycerol-3-phosphate oxidase system [4] | P. falciparum IC50 (P. falciparum [1]) [µg/mL] | P. falciparum SI (P. falciparum [1]) | T. b. rhodesiense IC50 [2, 7] [µg/mL] | IC50 against leishmania (leishmania) [µg/mL] | inhibition at 0.072 µg/mL [5] [%] | IC50 [6] [µg/mL] |
| --- | --- | --- | --- | --- | --- | --- | --- | --- | --- | --- | --- | --- | --- | --- | --- | --- | --- |
| O=C(O)c1cc(O)c(O)c(O)c1 [Gallic acid (1), gallic acid] | 0.2 | 66 (≈ 388 µM) | 56 (≈ 329 µM) | 0.3 | > 10 | 16 (≈ 94.1 µM) | 34 | 0.5 (≈ 2.94 µM) | > 100 | 1.3 (≈ 0.00764 µM) | inhibited |  |  |  |  |  |  |
| CCOC(=O)c1cc(O)c(O)c(O)c1 [Ethyl gallate (4), ethyl gallate] | 0.9 | 16 (≈ 80.7 µM) | 6.8 (≈ 34.3 µM) | 2.2 | 2.1 (≈ 10.6 µM) | 15 (≈ 75.7 µM) | 25 | 0.5 (≈ 2.52 µM) | > 100 |  |  | 3.0 | 4.9 | 0.6 |  |  |  |
| C=CCCC/C=C\C/C=C\CCCCCCCc1cc(O)cc(O)c1 [5-heptadeca-8′Z,11′Z,16-trienylresorcinol] |  |  |  |  |  |  |  |  |  |  |  |  |  |  | 3.6 (≈ 10.5 µM) |  |  |
| Nc1nc(N)nc(Nc2ccc([As]3SCC(CO)S3)cc2)n1 (stereo not drawn) [melarsoprol] |  |  |  |  |  |  |  |  |  |  |  |  |  |  |  | 98.4 |  |
| O=c1c(O)c(-c2ccc(O)c(O)c2)oc2c(O)c(O[C@@H]3O[C@H](CO)[C@@H](O)[C@H](O)[C@H]3O)cc(O)c12 [Gossypetin-7-O-β-glucopyranoside (6), gossypetin-7-O-β-glucopyranoside] | 0.8 | 12 (≈ 25 µM) | 53 (≈ 110 µM) | 0.2 |  | 8.9 (≈ 18.5 µM) | 1.6 | 5.5 (≈ 11.4 µM) |  |  |  |  |  |  |  |  |  |
| CC/C=C\C/C=C\C/C=C\CCCCCCCc1cc(O)cc(O)c1 [Resorcinol-alkyl (8), 5-[(8Z,11Z,14Z)-heptadeca-8,11,14-trienyl] resorcinol] | 1.4 | 9.1 (≈ 26.6 µM) | 2.5 (≈ 7.3 µM) | 5.2 |  | 13 (≈ 38 µM) | 2.5 | 5.3 (≈ 15.5 µM) |  |  |  |  |  |  |  |  | > 11 |
| COC(=O)c1cc(O)c(O)c(O)c1 [Methyl gallate (2), methyl gallate] | 1.0 | 16 (≈ 86.9 µM) | 8.5 (≈ 46.2 µM) | 1.9 | 3 (≈ 16.3 µM) | 16 (≈ 86.9 µM) | 15 | 1.1 (≈ 5.97 µM) | > 100 | 2.5 (≈ 0.0136 µM) | inhibited | 2.1 | 7.8 |  |  |  |  |
| O=c1cc(-c2ccc(O)c(O)c2)oc2c(O)c(O[C@@H]3O[C@H](CO)[C@@H](O)[C@H](O)[C@H]3O)cc(O)c12 [Hypolaetin-7-O-glucoside (7), hypolaetin-7-O-glucoside] | 0.4 | 49 (≈ 106 µM) | 52 (≈ 112 µM) | 0.4 |  | 19 (≈ 40.9 µM) | 3.2 | 5.7 (≈ 12.3 µM) |  |  |  |  |  |  |  |  |  |
| O=C(OC[C@@H]1O[C@H](OC(=O)c2cc(O)c(O)c(O)c2)[C@@H](OC(=O)c2cc(O)c(O)c(O)c2)[C@H](OC(=O)c2cc(O)c(O)c(O)c2)[C@H]1OC(=O)c1cc(O)c(O)c(O)c1)c1cc(O)c(O)c(O)c1 [Pentagalloyl-β-glucopyranoside (5), 1,2,3,4,6 pentagalloyl-β-glucopyranoside] | 0.5 | 44 (≈ 46.8 µM) | 15 (≈ 15.9 µM) | 1.4 | 6.7 (≈ 7.12 µM) | 21 (≈ 22.3 µM) | 1.0 | 20 (≈ 21.3 µM) |  |  |  |  | 3.1 |  |  |  |  |
